Measured values published in US20240208935A1, “COMPOSITIONS AND METHODS FOR TREATING NEURODEGENERATIVE DISEASES” (The Regents of the University of California, priority 2021, published 2024).

Key:
Assay type in all cases: cell-based, mice
[1] = test system: γ-oscillations in the CA3 region hippocampal slices; assay: In vitro KA-induced γ-oscillations in the CA3 region hippocampal slices; settings: 1 nM; 2 min epochs before and after application; 50 nM kainic acid
Description: (§1) Mice aged 8-24 weeks of both sexes will be anesthetized with halothane and decapitated according to the UCLA Chancellor's Animal Research Committee protocol. Horizontal 350 μm hippocampal slices are cut on a Leica VT1000S Vibratome in ice-cold N-Methyl-D-Glucamine (NMDG)-based HEPES-buffered cutting solution, containing in mM: NMDG 135, D-glucose 10, MgCl2 4, CaCl20.5, KCl 1, KH2PO4 1.2, HEPES 26, kynurenic acid 3, pH 7.3-7.4, 295-297 mOsm/l, bubbled with 100% O2. […]
The oscillations can be recorded in the presence of 50 nM kainic acid in horizontally cut hippocampal slices just below the CA3 pyramidal cells layer, and the oscillations recorded in vitro correspond well to those recorded in vivo during spatial reference memory. […] The squared magnitude of the FFT of the oscillations will be analyzed between 30-120 Hz. The area under the FFT curve will be calculated between these two frequencies and compared during a 2 min epoch just before the perfusion of the drug to the last 2 min of a 10 min drug perfusion. The ratios of the areas in-drug/pre-drug will be calculated as in FIG. 1B.
γ-oscillations were recorded in the presence of 50 nM kainic acid in horizontally cut hippocampal slices just below the CA3 pyramidal cells layer. These oscillations recorded in vitro correspond well to those recorded in vivo during spatial reference memory. […]

[2] = target: T1, fast synaptic α1β2γ2 receptors (Mus musculus, UniProt P22723+P62812+P63137); assay: Phasic current recordings in fluorescently labeled PV+INs; settings: 1 nM, 1-(current in drug/current in control), read-out: fraction inhibited of the phasic current
T1 construct: from tissue; host or cells: mouse cortical and hippocampal brain slices; tdTomato-labelled PV+ interneurons
Description: as §1
(§2) For these experiments mice expressing hChR2(H134R)-tdTomato specifically in PV+Ins will be used. […] Cells will be voltage-clamped at 0 mV where tonic and phasic GABAAR mediated currents can be recorded without interference from excitatory events. The tonic and phasic components of the currents will be determined as published using Gaussian fits to the all-points histograms of 30 s epochs of recordings during the pre-drug period, 5-10 min after the washin of the drug to be tested, and 1-2 min after washing-in 40 μM of the pan-GABAAR blocker gabazine (SR-95531). The magnitude of the tonic and phasic currents willbe determined by subtracting the currents in the presence of gabazine. […]

α1β2δ GABAARs of PV+INs = target: T2, α1β2δ GABAARs of PV+INs (Mus musculus, UniProt P22933+P62812+P63137); assay: Tonic current recordings in fluorescently labeled PV+INs; settings: 1 nM, 1-(current in drug/current in control), read-out: fraction inhibited of the tonic current
T2 construct: the native α1β2δ receptors of PV+INs; from tissue; host or cells: mouse cortical and hippocampal brain slices; tdTomato-labelled PV+ interneurons
Description: as §1, §2

[3] = test system: dentate gyrus granule cells (α4β2/3δ); assay: Tonic inhibition in dentate gyrus granule cells (selectivity); settings: 1 nM
Description: In addition to the α1β2δ GABAARs of PV+INs, the following native δ-GABAARs subunit combinations are present in the brain: (α6β2δ on cerebellar granule cells; α4β2/3δ are most prominent in the forebrain where they are found among other neurons on dentate gyrus granule cells. To establish selectivity of the compounds for the α1β2δ GABAARs of PV+INs, the compounds effects in cerebellar granule cells (α6β2δ) and dentate gyrus granule cells (α4β2/3δ) will be compared.
Selectivity measurement will be performed by dividing the blocking fractions of the compounds for tonic inhibition obtained for the PV+IN above by the values determined for cerebellar and dentate gyrus granule cells.

T1 sequence (P62812 28-455): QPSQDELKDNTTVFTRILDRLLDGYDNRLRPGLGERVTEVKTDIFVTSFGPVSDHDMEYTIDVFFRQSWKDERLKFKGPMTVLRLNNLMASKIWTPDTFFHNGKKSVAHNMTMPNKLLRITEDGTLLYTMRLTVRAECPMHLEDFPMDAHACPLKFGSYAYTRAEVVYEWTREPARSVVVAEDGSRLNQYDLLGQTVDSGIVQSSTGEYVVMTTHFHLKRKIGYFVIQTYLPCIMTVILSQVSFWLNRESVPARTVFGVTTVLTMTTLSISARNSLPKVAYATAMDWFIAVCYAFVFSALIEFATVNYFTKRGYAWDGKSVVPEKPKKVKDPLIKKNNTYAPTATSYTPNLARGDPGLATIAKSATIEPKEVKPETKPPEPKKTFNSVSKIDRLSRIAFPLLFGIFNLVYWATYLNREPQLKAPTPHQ
T1 sequence (P63137 25-512 limits assumed): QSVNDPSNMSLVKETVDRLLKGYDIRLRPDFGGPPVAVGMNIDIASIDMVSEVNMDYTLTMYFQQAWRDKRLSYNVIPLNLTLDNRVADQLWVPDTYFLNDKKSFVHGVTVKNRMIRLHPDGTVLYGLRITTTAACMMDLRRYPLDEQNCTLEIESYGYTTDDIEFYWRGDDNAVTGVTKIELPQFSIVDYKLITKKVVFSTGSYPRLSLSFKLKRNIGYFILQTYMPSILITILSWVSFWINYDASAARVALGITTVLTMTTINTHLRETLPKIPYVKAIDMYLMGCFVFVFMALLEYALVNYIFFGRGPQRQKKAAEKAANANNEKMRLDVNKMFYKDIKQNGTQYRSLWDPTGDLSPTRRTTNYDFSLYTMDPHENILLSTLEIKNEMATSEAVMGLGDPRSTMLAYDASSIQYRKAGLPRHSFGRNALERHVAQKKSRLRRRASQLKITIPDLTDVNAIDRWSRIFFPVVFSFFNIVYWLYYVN
T1 sequence (P22723 39-474): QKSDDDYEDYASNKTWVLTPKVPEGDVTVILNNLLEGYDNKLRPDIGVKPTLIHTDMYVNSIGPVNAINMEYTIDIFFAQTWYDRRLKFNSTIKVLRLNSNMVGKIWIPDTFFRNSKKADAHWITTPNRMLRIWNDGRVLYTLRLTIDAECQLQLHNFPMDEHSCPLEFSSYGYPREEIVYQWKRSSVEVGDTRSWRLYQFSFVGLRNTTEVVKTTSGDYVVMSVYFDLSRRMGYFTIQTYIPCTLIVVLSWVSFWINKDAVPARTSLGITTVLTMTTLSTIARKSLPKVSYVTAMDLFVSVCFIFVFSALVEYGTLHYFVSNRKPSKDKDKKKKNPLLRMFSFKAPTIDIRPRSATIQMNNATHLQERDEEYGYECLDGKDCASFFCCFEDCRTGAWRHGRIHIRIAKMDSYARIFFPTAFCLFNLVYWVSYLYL
T2 sequence (P62812 28-455): as the sequence (P62812 28-455) above
T2 sequence (P63137 26-512): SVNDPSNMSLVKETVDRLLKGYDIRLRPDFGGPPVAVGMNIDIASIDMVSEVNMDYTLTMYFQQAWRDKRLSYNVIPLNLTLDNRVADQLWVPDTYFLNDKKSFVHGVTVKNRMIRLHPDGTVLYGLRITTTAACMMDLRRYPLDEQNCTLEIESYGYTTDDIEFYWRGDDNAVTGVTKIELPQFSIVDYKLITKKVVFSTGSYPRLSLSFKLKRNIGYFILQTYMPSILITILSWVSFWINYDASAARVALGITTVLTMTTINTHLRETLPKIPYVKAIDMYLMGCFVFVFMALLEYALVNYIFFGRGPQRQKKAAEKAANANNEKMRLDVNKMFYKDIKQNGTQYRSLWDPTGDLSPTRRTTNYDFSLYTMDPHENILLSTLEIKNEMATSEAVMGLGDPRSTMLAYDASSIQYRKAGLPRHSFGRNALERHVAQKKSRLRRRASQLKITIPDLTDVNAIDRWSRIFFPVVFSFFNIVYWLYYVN
T2 sequence (P22933 25-449): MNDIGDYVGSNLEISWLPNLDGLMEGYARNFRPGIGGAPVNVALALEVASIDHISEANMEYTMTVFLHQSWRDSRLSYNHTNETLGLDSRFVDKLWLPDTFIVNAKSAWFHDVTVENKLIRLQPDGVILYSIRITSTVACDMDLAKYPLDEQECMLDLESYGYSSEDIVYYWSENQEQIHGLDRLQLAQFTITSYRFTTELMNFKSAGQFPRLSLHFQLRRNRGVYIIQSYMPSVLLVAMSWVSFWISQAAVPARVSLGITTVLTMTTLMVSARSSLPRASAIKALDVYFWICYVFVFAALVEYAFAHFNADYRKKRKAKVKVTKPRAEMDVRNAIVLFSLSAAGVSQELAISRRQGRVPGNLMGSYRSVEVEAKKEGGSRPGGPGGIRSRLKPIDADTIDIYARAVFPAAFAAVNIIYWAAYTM

inhibition at 0.001 µM [2]: 1.1%
inhibition at 0.001 µM (α1β2δ GABAARs of PV+INs): 79.2%
SMILES: On1cc(C2CCNCC2)c(Cc2ccc3ccccc3c2)n1 [DDL-920, 3-(naphthalen-2-ylmethyl)-4-(piperidin-4-yl)-1H-pyrazol-1-ol]
ratio of the drug/control areas under the FFT curve between 30-120 Hz [1]: 4.26
blocking fraction for tonic inhibition in dentate granule cells [3]: 0.376
selectivity, PV+IN vs dentate granule cell blocking fraction of tonic inhibition ([3]; PV+IN/dentate granule cell): 2.11
